Measured values reported in patent US20250230193A1, “CYCLIC COMPOUND HAVING SELECTIVE KRAS INHIBITORY EFFECT ON HRAS AND NRAS” (CHUGAI SEIYAKU KABUSHIKI KAISHA, priority 2022, published 2025).

How the values were obtained:
[1] = target: GDP-bound NRAS wild-type protein (Homo sapiens, UniProt P01111); assay: Binding to NRAS by surface plasmon resonance (SPR), Single Cycle Kinetics; conditions: KD ratio NRAS/KRAS, SPR
[2] = target: GDP-bound HRAS wild-type protein (Homo sapiens, UniProt P01112); assay: Binding to HRAS by surface plasmon resonance (SPR), Single Cycle Kinetics; conditions: KD ratio HRAS/KRAS, SPR
GDP-bound HRAS wild-type protein, sequence (P01112 whole entry): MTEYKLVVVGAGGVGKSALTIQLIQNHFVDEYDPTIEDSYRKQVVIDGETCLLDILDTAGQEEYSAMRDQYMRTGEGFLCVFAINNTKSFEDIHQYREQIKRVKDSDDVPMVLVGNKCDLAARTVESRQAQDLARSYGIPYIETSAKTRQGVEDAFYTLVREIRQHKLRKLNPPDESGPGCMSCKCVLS

GDP-bound NRAS wild-type protein, sequence (P01111 whole entry): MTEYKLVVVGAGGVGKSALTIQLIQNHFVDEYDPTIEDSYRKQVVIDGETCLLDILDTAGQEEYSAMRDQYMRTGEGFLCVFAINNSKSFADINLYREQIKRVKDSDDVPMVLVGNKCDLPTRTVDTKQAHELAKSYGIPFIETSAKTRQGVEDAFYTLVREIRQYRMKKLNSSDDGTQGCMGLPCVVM

Row | Structure (SMILES) | NRAS/KRAS (ratio of KD value with respect to GDP-bound NRAS wild-type protein to KD value with respect to KRAS) [1] | HRAS/KRAS (ratio of KD value with respect to GDP-bound HRAS wild-type protein to KD value with respect to KRAS) [2]
1 | CC[C@H](C)[C@@H]1NC(=O)[C@H](CC)N(C)C(=O)C[C@@H](C(=O)N2CCOCC2)N(C)C(=O)[C@H](C2CCCC2)N(C)C(=O)C2(CCCC2)NC(=O)[C@@H]2CCCN2C(=O)[C@H](CCc2cc(F)c(C(F)(F)F)c(F)c2)NC(=O)CN(C)C(=O)[C@H](Cc2ccc(C(F)(F)F)cc2)N2CCCCC[C@@H](C2=O)N(C)C(=O)CN(C)C1=O [PP0488] | A (a compound having 10 or more and less than 20 is denoted as A) | B (a compound having 3 or more and less than 10 is denoted as B)
2 | CC[C@H](C)[C@@H]1NC(=O)[C@H](CC(C)C)N(C)C(=O)C[C@@H](C(=O)N2CCOCC2)N(C)C(=O)[C@H](C2CCCC2)N(C)C(=O)C2(CCCC2)NC(=O)[C@@H]2CCCN2C(=O)[C@H](CCc2cc(F)c(C(F)(F)F)c(F)c2)NC(=O)CN(C)C(=O)[C@H](Cc2ccc(C(F)(F)F)cc2)N2CCCCC[C@@H](C2=O)N(C)C(=O)CN(C)C1=O [PP0490] | B (a compound having 3 or more and less than 10 is denoted as B) | B (a compound having 3 or more and less than 10 is denoted as B)
3 | CC[C@H](C)[C@@H]1NC(=O)[C@H](CC(C)C)N(C)C(=O)C[C@@H](C(=O)N2CCOCC2)N(C)C(=O)[C@H](C2CCCC2)N(C)C(=O)C2(CCCC2)NC(=O)[C@@H]2CC(F)(F)CN2C(=O)[C@H](CCc2cc(F)c(C(F)(F)F)c(F)c2)NC(=O)CN(C)C(=O)[C@H](Cc2ccc(C(F)(F)F)cc2)N2CCCCC[C@@H](C2=O)N(C)C(=O)CN(C)C1=O [PP0491] | B (a compound having 3 or more and less than 10 is denoted as B) | B (a compound having 3 or more and less than 10 is denoted as B)
4 | CCO[C@@H]1C[C@H]2C(=O)NC3(CCCC3)C(=O)N(C)[C@@H](C3CCCC3)C(=O)N(C)[C@H](C(=O)N3CCOCC3)CC(=O)N(C)[C@@H](CC(C)C)C(=O)N[C@@H]([C@@H](C)CC)C(=O)N(C)CC(=O)N(C)[C@H]3CCCCCN(C3=O)[C@@H](Cc3ccc(C(F)(F)F)cc3)C(=O)N(C)CC(=O)N[C@@H](CCc3cc(F)c(C(F)(F)F)c(F)c3)C(=O)N2C1 [PP0492] | B (a compound having 3 or more and less than 10 is denoted as B) | B (a compound having 3 or more and less than 10 is denoted as B)
5 | CC[C@H](C)[C@@H]1NC(=O)[C@H](CC(C)C)N(C)C(=O)C[C@@H](C(=O)N2CCOCC2)N(C)C(=O)[C@H](C2CCCC2)N(C)C(=O)C2(CCCC2)NC(=O)[C@@H]2CC(=O)CN2C(=O)[C@H](CCc2cc(F)c(C(F)(F)F)c(F)c2)NC(=O)CN(C)C(=O)[C@H](Cc2ccc(C(F)(F)F)cc2)N2CCCCC[C@@H](C2=O)N(C)C(=O)CN(C)C1=O [PP0493] | B (a compound having 3 or more and less than 10 is denoted as B) | B (a compound having 3 or more and less than 10 is denoted as B)
6 | CC[C@H](C)[C@@H]1NC(=O)[C@H](CC(C)C)N(C)C(=O)C[C@@H](C(=O)N2CCOCC2)N(C)C(=O)[C@H](C2CCCC2)N(C)C(=O)C2(CCCC2)NC(=O)[C@@H]2C[C@H](OC)CN2C(=O)[C@H](CCc2cc(F)c(C(F)(F)F)c(F)c2)NC(=O)CN(C)C(=O)[C@H](Cc2ccc(C(F)(F)F)cc2)N2CCCCC[C@@H](C2=O)N(C)C(=O)CN(C)C1=O [PP0495] | A (a compound having 10 or more and less than 20 is denoted as A) | B (a compound having 3 or more and less than 10 is denoted as B)
7 | CC[C@H](C)[C@@H]1NC(=O)[C@H](CC(C)C)N(C)C(=O)C[C@@H](C(=O)N2CCOCC2)N(C)C(=O)[C@H](C2CCCC2)N(C)C(=O)C2(CC2)NC(=O)[C@@H]2CCCN2C(=O)[C@H](CCc2cc(F)c(C(F)(F)F)c(F)c2)NC(=O)CN(C)C(=O)[C@H](Cc2ccc(C(F)(F)F)cc2)N2CCCCC[C@@H](C2=O)N(C)C(=O)CN(C)C1=O [PP0496] | B (a compound having 3 or more and less than 10 is denoted as B) | B (a compound having 3 or more and less than 10 is denoted as B)
8 | CC[C@H](C)[C@@H]1NC(=O)[C@H](CC(C)C)N(C)C(=O)C[C@@H](C(=O)N2CCOCC2)N(C)C(=O)[C@H](C2CCCC2)N(C)C(=O)C2(CCC2)NC(=O)[C@@H]2CCCN2C(=O)[C@H](CCc2cc(F)c(C(F)(F)F)c(F)c2)NC(=O)CN(C)C(=O)[C@H](Cc2ccc(C(F)(F)F)cc2)N2CCCCC[C@@H](C2=O)N(C)C(=O)CN(C)C1=O [PP0497] | B (a compound having 3 or more and less than 10 is denoted as B) | B (a compound having 3 or more and less than 10 is denoted as B)
9 | CC[C@H](C)[C@@H]1NC(=O)[C@H](CC(C)C)N(C)C(=O)C[C@@H](C(=O)N2CCOCC2)N(C)C(=O)[C@H](C2CCCC2)N(C)C(=O)C2(CCCCC2)NC(=O)[C@@H]2CCCN2C(=O)[C@H](CCc2cc(F)c(C(F)(F)F)c(F)c2)NC(=O)CN(C)C(=O)[C@H](Cc2ccc(C(F)(F)F)cc2)N2CCCCC[C@@H](C2=O)N(C)C(=O)CN(C)C1=O [PP0498] | B (a compound having 3 or more and less than 10 is denoted as B) | B (a compound having 3 or more and less than 10 is denoted as B)
10 | CC[C@H](C)[C@@H]1NC(=O)[C@H](CC(C)C)N(C)C(=O)C[C@@H](C(=O)N2CCOCC2)N(C)C(=O)[C@H](C2CCCC2)N(C)C(=O)C2(CC(F)(F)C2)NC(=O)[C@@H]2CCCN2C(=O)[C@H](CCc2cc(F)c(C(F)(F)F)c(F)c2)NC(=O)CN(C)C(=O)[C@H](Cc2ccc(C(F)(F)F)cc2)N2CCCCC[C@@H](C2=O)N(C)C(=O)CN(C)C1=O [PP0499] | B (a compound having 3 or more and less than 10 is denoted as B) | B (a compound having 3 or more and less than 10 is denoted as B)
11 | CC[C@H](C)[C@@H]1NC(=O)[C@H](CC(C)C)N(C)C(=O)C[C@@H](C(=O)N2CCOCC2)N(C)C(=O)[C@H](C2CCCC2)N(C)C(=O)[C@](C)(CC)NC(=O)[C@@H]2CCCN2C(=O)[C@H](CCc2cc(F)c(C(F)(F)F)c(F)c2)NC(=O)CN(C)C(=O)[C@H](Cc2ccc(C(F)(F)F)cc2)N2CCCCC[C@@H](C2=O)N(C)C(=O)CN(C)C1=O [PP0500] | B (a compound having 3 or more and less than 10 is denoted as B) | B (a compound having 3 or more and less than 10 is denoted as B)
12 | CC[C@H](C)[C@@H]1NC(=O)[C@H](CC(C)C)N(C)C(=O)C[C@@H](C(=O)N2CCOCC2)N(C)C(=O)[C@H](C2CCCC2)N(C)C(=O)C2(COC2)NC(=O)[C@@H]2CCCN2C(=O)[C@H](CCc2cc(F)c(C(F)(F)F)c(F)c2)NC(=O)CN(C)C(=O)[C@H](Cc2ccc(C(F)(F)F)cc2)N2CCCCC[C@@H](C2=O)N(C)C(=O)CN(C)C1=O [PP0501] | B (a compound having 3 or more and less than 10 is denoted as B) | B (a compound having 3 or more and less than 10 is denoted as B)
13 | CC[C@H](C)[C@@H]1NC(=O)[C@H](CC(C)C)N(C)C(=O)C[C@@H](C(=O)N2CCOCC2)N(C)C(=O)[C@H](C2CCCC2)N(C)C(=O)C2(CCOCC2)NC(=O)[C@@H]2CCCN2C(=O)[C@H](CCc2cc(F)c(C(F)(F)F)c(F)c2)NC(=O)CN(C)C(=O)[C@H](Cc2ccc(C(F)(F)F)cc2)N2CCCCC[C@@H](C2=O)N(C)C(=O)CN(C)C1=O [PP0502] | A (a compound having 10 or more and less than 20 is denoted as A) | B (a compound having 3 or more and less than 10 is denoted as B)
14 | CC[C@H](C)[C@@H]1NC(=O)[C@H](CC(C)C)N(C)C(=O)C[C@@H](C(=O)N2CCOCC2)N(C)C(=O)[C@H](C2CCCC2)N(C)C(=O)C(C)(C)NC(=O)[C@@H]2CCCN2C(=O)[C@H](CCc2cc(F)c(C(F)(F)F)c(F)c2)NC(=O)CN(C)C(=O)[C@H](Cc2ccc(C(F)(F)F)cc2)N2CCCCC[C@@H](C2=O)N(C)C(=O)CN(C)C1=O [PP0503] | A (a compound having 10 or more and less than 20 is denoted as A) | B (a compound having 3 or more and less than 10 is denoted as B)
15 | CC[C@H](C)[C@@H]1NC(=O)[C@H](CC(C)C)N(C)C(=O)C[C@@H](C(=O)N2CCOCC2)N(C)C(=O)[C@H](C2CCC2)N(C)C(=O)C2(CCCC2)NC(=O)[C@@H]2CCCN2C(=O)[C@H](CCc2cc(F)c(C(F)(F)F)c(F)c2)NC(=O)CN(C)C(=O)[C@H](Cc2ccc(C(F)(F)F)cc2)N2CCCCC[C@@H](C2=O)N(C)C(=O)CN(C)C1=O [PP0504] | B (a compound having 3 or more and less than 10 is denoted as B) | B (a compound having 3 or more and less than 10 is denoted as B)
16 | CC[C@H](C)[C@@H]1NC(=O)[C@H](CC(C)C)N(C)C(=O)C[C@@H](C(=O)N2CCOCC2)N(C)C(=O)[C@H](C2CCCCC2)N(C)C(=O)C2(CCCC2)NC(=O)[C@@H]2CCCN2C(=O)[C@H](CCc2cc(F)c(C(F)(F)F)c(F)c2)NC(=O)CN(C)C(=O)[C@H](Cc2ccc(C(F)(F)F)cc2)N2CCCCC[C@@H](C2=O)N(C)C(=O)CN(C)C1=O [PP0505] | B (a compound having 3 or more and less than 10 is denoted as B) | B (a compound having 3 or more and less than 10 is denoted as B)
